Experiments:
[1] = tested on: formaldehyde-induced nociception; experiment: Formaldehyde test, rat (second phase); type: in vivo; conditions: iv, male Sprague-Dawley rats, second (late) phase of formaldehyde test, pain rate vs vehicle control
Method: The investigations to determine the antinociceptive action of the compounds according to the invention of the formula I were carried by the formaldehyde test on male rats (Sprague-Dawley, 150–170 g). In the formaldehyde test, a distinction is drawn between the first (early) phase (0–15 min after formaldehyde injection) and the second (later) phase (15–60 min after formaldehyde injection) (D. Dubuisson, S. G. Dennis, Pain 4, 161–174 (1977)). […]
A nociceptive reaction was induced in the freely mobile test animals by a single, subcutaneous formaldehyde injection (50 μl, 5%) into the dorsal side of the rear hind paw, the reaction being classed according to one of the following behavioral parameters: lifting and holding up the affected paw (score 1), shaking or twitching (score 2), licking and biting (score 3). The differential behavior induced by the formaldehyde injection was recorded by observing the animals in the late phase of the formaldehyde test and assigned a variable weighting in the evaluation. Normal behavior, in which the animal places an even load on all four paws, was recorded as a score of 0. […] The nociceptive behavior was calculated as a “pain rate” (PR). […] On the basis of the calculated PR values, the effect of the substance was determined as a percentage change relative to the control. […]

[2] = target: T1, glycine-binding site of the NMDA receptor channel (Rattus norvegicus, UniProt P35439); experiment: Receptor binding (glycine-binding site of the NMDA receptor channel), displacement of (3H)-MDL 105.519
T1 construct: from tissue; host or cells: rat brain cortex and hippocampus membrane homogenate (male Wistar)
Method: Receptor Binding (Glycine-Binding Site of the NMDA Receptor Channel)
The investigation for determining the affinity of the compounds according to the invention of the formula I towards the glycine-binding site of the NMDA receptor channel was performed on brain membrane homogenates (homogenate of the cortex and hippocampus area from male rat brain, Wistar strain) [B. M. Baron, B. W. Siegel, B. L. Harrison, R. S. Gross, C. Hawes and P. Towers, Journal of Pharmacology and Experimental Therapeutics, vol. 279, p. 62, 1996].
To this end, the cortex and hippocampus were dissected out of freshly harvested rat brains and homogenized with ice cooling in 5 mmol/l of TRIS-acetate buffer, 0.32 mol/l of sucrose, pH 7.4 (10 ml/g fresh weight) using a Potter homogenizer (Braun/Melsungen, 10 piston strokes at 500 rpm) and then centrifuged for 10 minutes at 1,000 g and 4° C. […] This membrane homogenate was used in the receptor binding test in a quantity of 100 μl per 1 ml batch (0.1 mg of protein/ml in the final batch). […] The level of non-specific binding was determined in the presence of 1 mmol/l of glycine.
In further batches, the compounds according to the invention were added in concentration series and the displacement of the radioactive ligand from its specific binding at the glycine-binding site of the NMDA receptor channel was determined. […]

Glycine-binding site of the NMDA receptor channel Displacement ([2]; 10 μmol/l of substance, displacement of (3H)-MDL 105.519 from specific binding, rat brain membranes): 100%
Ki ([2]; rat cortex and hippocampus membrane homogenate, ligand 1 nmol/l (3H)-MDL 105.519, converted from IC50 by Cheng-Prussoff, mean of three independent tests): 53 nM
SMILES: O=C(O)C1Nc2cc(Cl)cc(Cl)c2C2c3ccccc3OC12 (stereo not drawn) [Example 1, 1,3-Dichloro-5,6,6a,11b-tetrahydro-7-oxa-5-aza-benzo [c]fluorene-6-carboxylic acid]
ED50 [1]: 7.27 mg/kg
